Assays:
[1] = tested on: cervical cancer cell line (HeLa); conditions: cited from earlier work
[2] = tested on: melanoma (SK-Mel 128) cancer cell lines; experiment: Cytotoxicity test (MTT), SK-Mel 128; type: cell-based, human; conditions: SK-MEL 128, 48 hours
Source text: (§1) Cytotoxic effects of test substances are testes by means of using human breast (BT-20), melanoma (SK-Mel 128), prostate (DU-145), liver (SNU-398) and lung (A549) cancer cell lines. Toxic effects of test substances on the healthy normal cells are studied on human fibroblast cells (HFC).
(§2) Cell suspension prepared from alpha-MEM having 10% FBS (Fetal Bovine Serum), fungizone and penicillin/streptomycin is distributed as 5×10^3 of cell in each well in the cell culture containers comprising 96 wells for the test. […] Cells are kept in a humid environment at 5% of CO2 at 37°C for 48 hours in the presence of the test substance, of which final densities are of 200-0.09 µg/mL. 10 µL from the MTT solution (3-[4,5-dimethyltioazol-2,5-diphenyltetrazolium bromide) prepared at a density of 5 mg/mL is added to each well so as to determine the cell generation rate at the end of incubation period. After culture containers are kept in the humid environment at 5% of CO2 at 37°C for 2 hours, the content is emptied and dimethyl sulphoxide (DMSO) is added in the value of 100 µL/well on cells so as to solubilize intracellular formazan crystals. After incubation for 30 minutes, the color intensity is measured in the wave length of 570/620 by means of ELISA Microplate Reader (Tecan, Sunrise).

topoisomerase I enzyme = biological target: T1, topoisomerase I enzyme (Homo sapiens, UniProt P11387); experiment: Topoisomerase I inhibition (relaxation method); type: biochemical; conditions: 1 U Topo I, pBR322 plasmid DNA; 7a 12.5-37.5 µM; 3a 12.5-25 µM
T1 sequence (P11387 1-765): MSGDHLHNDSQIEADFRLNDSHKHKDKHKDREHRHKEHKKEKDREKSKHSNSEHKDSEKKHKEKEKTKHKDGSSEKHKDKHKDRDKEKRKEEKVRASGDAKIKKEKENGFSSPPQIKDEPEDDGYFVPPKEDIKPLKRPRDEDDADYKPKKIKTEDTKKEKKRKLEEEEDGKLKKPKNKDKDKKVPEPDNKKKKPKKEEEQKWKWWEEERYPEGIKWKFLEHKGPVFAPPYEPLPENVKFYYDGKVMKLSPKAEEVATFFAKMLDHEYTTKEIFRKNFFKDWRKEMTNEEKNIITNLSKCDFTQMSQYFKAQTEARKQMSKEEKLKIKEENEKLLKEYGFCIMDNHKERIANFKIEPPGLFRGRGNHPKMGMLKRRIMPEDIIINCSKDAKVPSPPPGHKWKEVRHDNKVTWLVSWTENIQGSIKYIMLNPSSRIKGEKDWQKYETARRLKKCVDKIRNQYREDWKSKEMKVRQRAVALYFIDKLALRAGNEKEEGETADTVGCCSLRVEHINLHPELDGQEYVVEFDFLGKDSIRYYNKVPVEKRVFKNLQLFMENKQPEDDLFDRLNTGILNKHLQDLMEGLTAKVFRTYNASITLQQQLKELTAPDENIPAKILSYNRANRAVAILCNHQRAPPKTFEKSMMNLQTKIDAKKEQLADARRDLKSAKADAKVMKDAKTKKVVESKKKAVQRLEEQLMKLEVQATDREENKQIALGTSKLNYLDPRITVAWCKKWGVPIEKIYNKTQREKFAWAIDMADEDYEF
Description: After incubation process, samples are loaded to 0.8 % of agarose gel, exposed to electrophoresis in the running buffer by applying 40 volt of current for 3 hours and forms obtained are observed on the agarose gel under UV light.

[3] = tested on: liver (SNU-398) cancer cell lines; experiment: Cytotoxicity test (MTT), SNU-398; type: cell-based, human; conditions: SNU-398, 48 hours
Source text: as §1, §2

CT-DNA [4] = experiment: Determination of DNA melting temperature; type: binding; conditions: absorbance at 260 nm; CT-DNA alone 75.57 °C
Description: Studies pertaining to determination of DNA melting temperature is carried out by means of Cary 100 Bio UV-Visible Spectrophotometer with Varian Cary Temperature Controller unit.
(§3) The absorbance is measured at 260 nm at every 0.5 °C in the range of 60-90 °C by increasing temperature of the cell comprising the basin by 1 °C every minute by means of employing thermal melting program. Values Tm are automatically calculated by the device from t(°C)-Absorbance curve of CT-DNA drawn in the presence and absence of the compound depending on its absorbance in 260 nm.
as §3, with “program of DNA melting temperature of the compound 3a.” for “program.”, “3a” for “the compound”, “nm. While the melting temperature of CT-DNA is at 75.57 °C, the melting temperature of the compounds CT-DNA + 3a is at 81.82 °C. An increase at the melting temperatures strengthens the potential that the compounds becomes an intercalative agents.” for “nm.”

[5] = tested on: breast (BT-20) cancer cell lines; experiment: Cytotoxicity test (MTT), BT-20; type: cell-based, human; conditions: BT20, 48 hours
Source text: as §1, §2

CT-DNA [6] = experiment: Competitive EB binding experiment; conditions: EB (50 µM), CT-DNA (50 µM), pH 7.2
Description: It is observed in competitive EB binding studies of compounds how the wave length and absorbance, in which EB (50 µM) whose concentration is kept stable presents the maximum absorbance, vary with addition of CT-DNA (50 µM) and then with simultaneous addition of DNA and complex. This study is carried out in the buffer of 5 mM Tris-HCl/50 mM NaCl (pH 7.2).

pBR322 plasmid DNA [7] = experiment: Determination of reactive oxygen types in photonuclease activity; type: biochemical; conditions: 3a (50 µM), stimulation with light
Description: Inhibition tests are performed in the presence of standard radical scavengers so as to determine active oxygen types effective on its cleavage in the presence of light on pBR322 plasmid DNA of complexes. For that purpose, it used ethanol (EtOH), methanol (MeOH) and dimethyl sulphoxide (DMSO) as hydroxyl radical scavenger; sodium azide and L-histidine as singlet oxygen scavenger; SOD as superoxide radical scavenger, EDTA as chelating agent and catalase as hydrogen peroxide adsorbent. It is also observed whether or not results obtained by using different types scavenging the same type of radicals support each other. Different reaction mixtures are formed by means of adding pBR322 plasmid DNA and complex in the efficient concentration and any one of above mentioned standard radical scavengers in variable concentrations into 50 mM Tris-HCl buffer. Subsequent to incubation of different reaction mixture formed at 37°C for an hour, it comprises the process of examining and monitoring these products. […]

CT-DNA [8] = experiment: UV-Vis absorption titration; type: binding; conditions: in the presence of CT-DNA; 5 mM Tris-HCl/50 mM NaCl (pH 7.2)
Description: Stock solutions of compounds are obtained by means of being solved in water and stored in a room temperature in darkness. Stock solutions of CT-DNA are prepared in 5 mM Tris-HCl buffer of 7.2 pH with 50 mM NaCl and stored at 4 °C for three days. At the end of this period, absorbance rates of 260 and 280 nm are calculated so as to determine rate of DNA impurity. […] Concentration of DNA is measured and calculated at 260 nm by using molar excitation coefficient of (ε) 6600 M^-1cm^-1. All studies with the interaction between compounds and CT-DNA are carried out in 5 mM Tris-HCl/50 mM NaCl (pH 7.2) by keeping stock solutions prepared in water at the stable concentration and changing CT-DNA concentration. While carrying out this process, absorbance of CT-DNA is eliminated by adding CT-DNA in an equal amount on the blind solution.
Variations in the absorbance intensity are presented in percent. %H = [(A1−A2)/(A1)] × 100 [formula]
A1: Maximum absorbance of the compound; A2: Absorbance of the compound subsequent to addition of DNA.

[9] = tested on: supercoiled pBR322 plasmid DNA; experiment: Nuclease activity under irradiation (photonuclease); type: biochemical; conditions: for nuclease activity under irradiation: light for 15 minutes, 700 nm filter, increasing concentrations
Source text: (§4) Cleavage activities of supercoiled pBR322 plasmid DNA of the compounds are observed by means of using agarose-gel electrophoresis. When the supercoiled is exposed to pBR322 plasmid DNA electrophoresis, it is observed that the supercoiled form (Form I) migrates in the swiftest manner. In case of a cut occurred on a single chain, the supercoiled form creates a nicked form (Form II) moving in the slowest manner. In case both chains are cut, the linear form (Form III) migrating between Form I and Form II.
It is used General Electric quartz lamb of 300 watts and optical filter of 700 nm for compounds illustrated as Formula I and II to light in the proper wave length so as to observe that the supercoiled pBR322 plasmid DNA is cleavage by the compounds and so as to evaluate usability potentials of the compounds in the photo-dynamic therapy. In this study, total volume of reaction mixture contained 50 mM Tris-HCl (pH 7.0), super-coiled pBR322 plasmid DNA (250 ng), and increasing concentrations of compounds. Afterwards, well contents are exposed to light for 15 minutes. At the end of this period, after mixtures are incubated in darkness at 37 °C for an hour, reactions are stopped by means of above-mentioned methods and cut products are observed on the agarose gel under UV light.

[10] = tested on: supercoiled pBR322 plasmid DNA; experiment: Hydrolytic nuclease activity (agarose gel electrophoresis); type: biochemical; conditions: 7a 6.25-50 µM; 3a 12.5-100 µM; without light
Source text: as §4
Total volume of reaction mixture contained 50 mM Tris-HCl (pH 7.0), supercoiled pBR322 plasmid DNA (250 ng), and different concentrations of compound. While the well content is loaded to 0.8 percent of agarose gel (comprising 0.25 µg/mL EB), gel loading dye also added and loaded to the gel. After addition of running buffer, it is exposed to electrophoresis by applying a current of 100 volt for 90 minutes.

[11] = tested on: prostate (DU-145) cancer cell lines; experiment: Cytotoxicity test (MTT), DU-145; type: cell-based, human; conditions: DU-145, 48 hours
Source text: as §1, §2

[12] = tested on: lung (A549) cancer cell lines; experiment: Cytotoxicity test (MTT), A549; type: cell-based, human; conditions: A549, 48 hours
Source text: as §1, §2

pBR322 plasmid DNA [13] = experiment: Oxidative nuclease activity; type: biochemical; conditions: with oxidative agent (H2O2, AA, ME) under irradiation
Description: Auxiliary reagents are added to H2O2, AA, ME medium so as to examine oxidative cleavage activities of the compounds.
In this study, pBR322 plasmid DNA is formed of buffer solution (50 mM Tris-HCl (pH 7)), auxiliary reagents and increasing concentrations of compounds, such that well contents are of 10 µL. The oxidative nuclease activity studies were performed under light irradiation. At the end of this period, after mixtures are incubated in darkness at 37 °C for an hour, reaction is stopped by means of above-mentioned methods and cleavage products are observed on the agarose gel under UV light.
Subsequent to the determination of hydrolytic nuclease activities of the compounds 7a and 3a, cleavage reactions are carried out by way of adding hydrogen peroxide (H2O2) (0.4 M), ascorbic acid (AA) (2.5 mM) and mercaptoethanol (ME) (0.4 M) so as to examine its oxidative cleavage capabilities with/without irradiation and the related results are given in Figure 4.

topoisomerase II enzyme = experiment: Topoisomerase II inhibition (relaxation method); type: biochemical; conditions: 1 U Topo II, pBR322 plasmid DNA; 7a 12.5-37.5 µM; doxorubicin as standard
Description: After incubation process, samples are loaded to 0.8 % of agarose gel, exposed to electrophoresis in the running buffer by applying 40 volts of current for 3 hours and forms obtained are observed on the agarose gel under UV light.

Molecule	cell survival (photocytotoxicity) [1]	CC50 [2]	topoisomerase I inhibition effect (topoisomerase I enzyme)	CC50 [3]	melting temperature of CT-DNA + compound (CT-DNA [4])	CC50 [5]	competitive EB binding (CT-DNA [6])	effect of singlet oxygen scavengers NaN3 and L-Histidine on cleavage (pBR322 plasmid DNA [7])	hypochromism (CT-DNA [8])	red-shift (CT-DNA [8])	nuclease activity under irradiation at 100 µM ([9]; in the presence of light, concentration of 100 µM)	nuclease activity under irradiation [9]	hydrolytic nuclease activity [10]	CC50 [11]	CC50 [12]	oxidative cleavage activity (pBR322 plasmid DNA [13])	topoisomerase II inhibition effect (topoisomerase II enzyme)
c1ccc(C(O[Si]2(OC(c3ccccc3)(c3ccccc3)c3ccncc3)n3c4c5ccccc5c3N=C3N=C(N=c5c6ccccc6c(n52)=NC2=NC(=N4)c4ccccc42)c2ccccc23)(c2ccccc2)c2ccncc2)cc1 [compound 3, axially di-(alpha,alpha-diphenyl-4-pyridylmethoxy) silicon(IV) phthalocyanine]	17%	–	–	–	–	–	–	–	–	–	–	–	–	–	–	–	–
bis(3,5-bis{3-[3-trimethylamino)phenoxy]propoxy}phenyl)methoxy)phthalocyaninato silicon (IV) Iodide [3a]	–	1.47 µM	supercoiled form rate increases	0.86 µM	81.82 °C	3.96 µM	compete with EB so as to bind with CT-DNA	prevent the cleavage	25.40%	6 nm	destroys pBR322 plasmid DNA completely	exhibits the nuclease activity depending on the concentration	observed for the compound 3a depending on the concentration	4.63 µM	2.24 µM	–	–
bis(3,5-bis{3-[3-(diethylmethylamino)phenoxy]propoxy}phenyl)methoxy)phthalocyaninato silicon (IV) Iodide [7a]	–	1.13 µM	supercoiled form rate increases	0.49 µM	–	1.44 µM	compete with EB so as to bind with CT-DNA	–	43.64%	6 nm	–	exhibits the nuclease activity depending on the concentration	observed for the compound 7a depending on the concentration	2.99 µM	1.18 µM	significantly high cleavage activity	Effective results are observed compared to doxorubicin

Source: patent EP3856749B1, “WATER-SOLUBLE, NON-AGGREGATED SILICON PHTALGCYANINE COMPOUND HAVING IN VITRO ANTICANCER EFFECT AGAINST CANCER TYPES OF LUNG, LIVER, BREST AND MELANOMA” (Karadeniz Teknik Universitesi, priority 2018, dated 2020)
